Results: US10604535B2, “Compounds, compositions and methods” (Denali Therapeutics Inc., priority 2016, dated 2020)

biological target: GST-hRIPK1 (8-327) (Homo sapiens (Human), UniProt Q13546); assay: Fluorescent Polarization Binding (FP Binding) assay
Sequence (Q13546 8-327): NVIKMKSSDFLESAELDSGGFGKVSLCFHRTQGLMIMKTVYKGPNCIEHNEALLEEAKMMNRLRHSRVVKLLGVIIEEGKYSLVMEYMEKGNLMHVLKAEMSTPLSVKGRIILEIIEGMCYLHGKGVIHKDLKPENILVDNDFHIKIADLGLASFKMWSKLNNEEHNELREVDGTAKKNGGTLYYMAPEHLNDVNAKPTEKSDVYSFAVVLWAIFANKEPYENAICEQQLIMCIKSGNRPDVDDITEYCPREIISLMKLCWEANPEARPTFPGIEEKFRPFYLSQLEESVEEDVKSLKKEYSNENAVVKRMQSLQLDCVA

Question: `CN1C(=O)[C@H](NC(=O)c2nnc(Cc3ccccc3)[nH]2)CC2(CC2)c2cccnc21` [Example 125A, (R)-5-benzyl-N-(9′-methyl-8′-oxo-6′,7′,8′,9′-tetrahydrospiro[cyclopropane-1,5′-pyrido[2,3-b]azepin]-7′-yl)-4H-1,2,4-triazole-3-carboxamide] was tested. Which IC50 did it give?
Answer: > 3000 nM

Question: `C[C@H]1Oc2cccnc2N(C)C(=O)[C@H]1NC(=O)c1nn(Cc2ccc(C#N)cc2)cc1F` [Example 127, 1-(4-Cyanobenzyl)-N-((2R,3S)-2,5-dimethyl-4-oxo-2,3,4,5-tetrahydropyrido[3,2-b][1,4]oxazepin-3-yl)-4-fluoro-1H-pyrazole-3-carboxamide] was tested. Which IC50 did it give?
Answer: 0.1 to 1000 nM

Question: How did the IC50 turn out when `Cc1cc2n(n1)CC[C@H](NC(=O)c1nnc(Cc3ccccc3)[nH]1)C(=O)N2C` [Example 129A, (S)-5-Benzyl-N-(2,4-dimethyl-5-oxo-5,6,7,8-tetrahydro-4H-pyrazolo[1,5-a][1,3]diazepin-6-yl)-4H-1,2,4-triazole-3-carboxamide] was run?
Answer: 0.1 to 1000 nM

Question: `Cc1cc2n(n1)CC[C@@H](NC(=O)c1nnc(Cc3ccccc3)[nH]1)C(=O)N2C` [Example 129B, (R)-5-Benzyl-N-(2,4-dimethyl-5-oxo-5,6,7,8-tetrahydro-4H-pyrazolo[1,5-a][1,3]diazepin-6-yl)-4H-1,2,4-triazole-3-carboxamide] was tested. Which IC50 did it give?
Answer: > 3000 nM

Question: How did the IC50 turn out when `Cc1cnn2c1N(C)C(=O)[C@@H](NC(=O)c1nnc(Cc3ccccc3)[nH]1)CC2` [Example 131A, (S)-5-Benzyl-N-(3,4-dimethyl-5-oxo-5,6,7,8-tetrahydro-4H-pyrazolo[1,5-a][1,3]diazepin-6-yl)-4H-1,2,4-triazole-3-carboxamide] was run?
Answer: 0.1 to 1000 nM

Question: With `Cc1cnn2c1N(C)C(=O)[C@H](NC(=O)c1nnc(Cc3ccccc3)[nH]1)CC2` [Example 131B, (R)-5-Benzyl-N-(3,4-dimethyl-5-oxo-5,6,7,8-tetrahydro-4H-pyrazolo[1,5-a][1,3]diazepin-6-yl)-4H-1,2,4-triazole-3-carboxamide] as the compound, how does the IC50 read?
Answer: > 3000 nM

Question: With `O=C(N[C@@H]1COc2cccnc2-n2ccnc21)c1nnc(Cc2ccccc2)[nH]1` [Example 141A, (S)-5-Benzyl-N-(6,7-dihydroimidazo[1,2-d]pyrido[3,2-b][1,4]oxazepin-7-yl)-4H-1,2,4-triazole-3-carboxamide] as the compound, how does the IC50 read?
Answer: > 3000 nM

Question: For `O=C(N[C@H]1COc2cccnc2-n2ccnc21)c1nnc(Cc2ccccc2)[nH]1` [Example 141B, (R)-5-benzyl-N-(6,7-dihydroimidazo[1,2-d]pyrido[3,2-b][1,4]oxazepin-7-yl)-4H-1,2,4-triazole-3-carboxamide], which IC50 is on record?
Answer: 0.1 to 1000 nM

Question: With `CN1C(=O)[C@H](NC(=O)c2nnc(C3(c4ccccc4)CC3)o2)CCc2cccnc21` [Example 145B, (R)—N-(9-methyl-8-oxo-6,7,8,9-tetrahydro-5H-pyrido[2,3-b]azepin-7-yl)-5-(1-phenylcyclopropyl)-1,3,4-oxadiazole-2-carboxamide] as the compound, how does the IC50 read?
Answer: > 3000 nM

Question: For `CN1C(=O)[C@H](NC(=O)c2nnc(Cc3ccccc3)o2)CCc2cccnc21` [Example 148B, (R)-5-benzyl-N-(9-methyl-8-oxo-6,7,8,9-tetrahydro-5H-pyrido[2,3-b]azepin-7-yl)-1,3,4-oxadiazole-2-carboxamide], which IC50 is on record?
Answer: 1000 to 10000 nM

Question: `CN1C(=O)[C@H](NC(=O)c2nn(Cc3cccc(C#N)c3)cc2F)CCc2cccnc21` [Example 152A, (R)-1-(3-cyanobenzyl)-4-fluoro-N-(9-methyl-8-oxo-6,7,8,9-tetrahydro-5H-pyrido[2,3-b]azepin-7-yl)-1H-pyrazole-3-carboxamide] was tested. Which IC50 did it give?
Answer: > 3000 nM

Question: With `C[C@H]1Oc2cccnc2N(C)C(=O)[C@H]1NC(=O)c1ccn(Cc2ccccc2)n1` [Example 155, 1-Benzyl-N-((2R,3S)-2,5-dimethyl-4-oxo-2,3,4,5-tetrahydropyrido[3,2-b][1,4]oxazepin-3-yl)-1H-pyrazole-3-carboxamide] as the compound, how does the IC50 read?
Answer: 0.1 to 1000 nM

Question: For `CN1C(=O)[C@H](NC(=O)c2nn(Cc3ccc(F)cc3)cc2F)[C@@H]2C[C@@H]2c2cccnc21` [Example 156A, 4-fluoro-1-(4-fluorobenzyl)-N-((1aR,2R,8bS)-4-methyl-3-oxo-1,1a,2,3,4,8b-hexahydrocyclopropa[d]pyrido[2,3-b]azepin-2-yl)-1H-pyrazole-3-carboxamide], which IC50 is on record?
Answer: > 3000 nM

Question: For `CN1C(=O)[C@H](NC(=O)c2nnc(Cc3ccccc3)o2)[C@@H]2C[C@@H]2c2cccnc21` [Example 157A, 5-benzyl-N-((1aR,2R,8bS)-4-methyl-3-oxo-1,1a,2,3,4,8b-hexahydrocyclopropa[d]pyrido[2,3-b]azepin-2-yl)-1,3,4-oxadiazole-2-carboxamide], which IC50 is on record?
Answer: > 3000 nM

Question: With `CN1C(=O)[C@@H](NC(=O)c2cc(C#N)n(Cc3ccc(F)cc3)n2)COc2cccnc21` [Example 159, (S)-5-cyano-1-(4-fluorobenzyl)-N-(5-methyl-4-oxo-2,3,4,5-tetrahydropyrido[3,2-b][1,4]oxazepin-3-yl)-1H-pyrazole-3-carboxamide] as the compound, how does the IC50 read?
Answer: 0.1 to 1000 nM

Question: Which IC50 does the source give for `CN1C(=O)[C@H](NC(=O)c2nnc(Cc3ccccc3)o2)C2(CC2)Oc2cccnc21` [Example 160B, (R)-5-benzyl-N-(5′-methyl-4′-oxo-4′,5′-dihydro-3′H-spiro[cyclopropane-1,2′-pyrido[3,2-b][1,4]oxazepin]-3′-yl)-1,3,4-oxadiazole-2-carboxamide] here?
Answer: > 3000 nM

Question: How did the IC50 turn out when `N#Cc1cccc(Cn2cc(F)c(C(=O)N[C@H]3C(=O)Nc4c(F)cc(F)cc4[C@H]4C[C@H]43)n2)c1` [Example 170B, 1-(3-cyanobenzyl)-N-((1aR,2R,8bS)-5,7-difluoro-3-oxo-1,1a,2,3,4,8b-hexahydrobenzo[b]cyclopropa[d]azepin-2-yl)-4-fluoro-1H-pyrazole-3-carboxamide] was run?
Answer: > 3000 nM

Question: Which IC50 does the source give for `O=C(N[C@@H]1C(=O)Nc2c(F)cc(F)cc2[C@H]2C[C@@H]12)c1nnc(Cc2ccccc2)[nH]1` [Example 176, 5-benzyl-N-((1aR,2S,8bS)-5,7-difluoro-3-oxo-1,1a,2,3,4,8b-hexahydrobenzo[b]cyclopropa[d]azepin-2-yl)-4H-1,2,4-triazole-3-carboxamide] here?
Answer: 0.1 to 1000 nM

Question: How did the IC50 turn out when `CN1C(=O)[C@H](NC(=O)c2nnc(Cc3ccccc3)o2)[C@@H]2C[C@@H]2c2nccnc21` [Example 177B, 5-benzyl-N-((7R,7aR,8aS)-5-methyl-6-oxo-5,6,7,7a,8,8a-hexahydrocyclopropa[d]pyrazino[2,3-b]azepin-7-yl)-1,3,4-oxadiazole-2-carboxamide] was run?
Answer: > 3000 nM

Question: For `CN1C(=O)[C@H](NC(=O)c2nn(Cc3ccccc3F)cc2F)CCc2nccnc21` [Example 178B, (R)-4-fluoro-1-(2-fluorobenzyl)-N-(5-methyl-6-oxo-6,7,8,9-tetrahydro-5H-pyrazino[2,3-b]azepin-7-yl)-1H-pyrazole-3-carboxamide], which IC50 is on record?
Answer: > 3000 nM

Question: How did the IC50 turn out when `CN1C(=O)[C@H](NC(=O)c2nn(Cc3ccccc3F)cc2F)[C@@H]2C[C@@H]2c2nccnc21` [Example 179B, 4-fluoro-1-(2-fluorobenzyl)-N-((7R,7aR,8aS)-5-methyl-6-oxo-5,6,7,7a,8,8a-hexahydrocyclopropa[d]pyrazino[2,3-b]azepin-7-yl)-1H-pyrazole-3-carboxamide] was run?
Answer: > 3000 nM

Question: `CN1C(=O)[C@H](NC(=O)c2nnc(C3(c4ccccc4)CC3)o2)CCc2nccnc21` [Example 180B, (R)—N-(5-methyl-6-oxo-6,7,8,9-tetrahydro-5H-pyrazino[2,3-b]azepin-7-yl)-5-(1-phenylcyclopropyl)-1,3,4-oxadiazole-2-carboxamide] was tested. Which IC50 did it give?
Answer: > 3000 nM

Question: Which IC50 does the source give for `N#Cc1cccc(Cc2nnc(C(=O)N[C@H]3C(=O)Nc4c(F)cc(F)cc4[C@H]4C[C@H]43)[nH]2)c1` [Example 181A, 5-(3-cyanobenzyl)-N-((1aR,2R,8bS)-5,7-difluoro-3-oxo-1,1a,2,3,4,8b-hexahydrobenzo[b]cyclopropa[d]azepin-2-yl)-4H-1,2,4-triazole-3-carboxamide] here?
Answer: > 3000 nM

Question: How did the IC50 turn out when `Cc1ncccc1Cn1cc(F)c(C(=O)N[C@@H]2CCc3nccnc3N(C)C2=O)n1` [Example 182A, (R)-4-fluoro-N-(5-methyl-6-oxo-6,7,8,9-tetrahydro-5H-pyrazino[2,3-b]azepin-7-yl)-1-((2-methylpyridin-3-yl)methyl)-1H-pyrazole-3-carboxamide] was run?
Answer: > 3000 nM

Question: With `[2H]C([2H])([2H])N1C(=O)[C@H](NC(=O)c2nn(Cc3ccccc3)cc2F)[C@@H]2C[C@@H]2c2cc(S(C)(=O)=O)ccc21` [Example 183A, 1-benzyl-4-fluoro-N-((1aR,2R,8bS)-4-trideuteriomethyl-7-(methylsulfonyl)-3-oxo-1,1a,2,3,4,8b-hexahydrobenzo[b]cyclopropa[d]azepin-2-yl)-1H-pyrazole-3-carboxamide] as the compound, how does the IC50 read?
Answer: > 3000 nM

Question: For `CN1C(=O)[C@@H](NC(=O)c2nn(Cc3cnn(C)c3)cc2F)COc2cccnc21` [Example 184, (S)-4-fluoro-1-((1-methyl-1H-pyrazol-4-yl)methyl)-N-(5-methyl-4-oxo-2,3,4,5-tetrahydropyrido[3,2-b][1,4]oxazepin-3-yl)-1H-pyrazole-3-carboxamide], which IC50 is on record?
Answer: 0.1 to 1000 nM

Question: With `CN1C(=O)[C@@H](NC(=O)c2nnc(Cc3ccccc3)o2)CCc2nccnc21` [Example 190, (S)-5-benzyl-N-(5-methyl-6-oxo-6,7,8,9-tetrahydro-5H-pyrazino[2,3-b]azepin-7-yl)-1,3,4-oxadiazole-2-carboxamide] as the compound, how does the IC50 read?
Answer: 0.1 to 1000 nM

Question: `C[C@H]1Oc2ncccc2N(C)C(=O)[C@H]1NC(=O)c1nnc(Cc2ccccc2)o1` [Example 193, 5-benzyl-N-((3S,4R)-1,4-dimethyl-2-oxo-1,2,3,4-tetrahydropyrido[2,3-b][1,4]oxazepin-3-yl)-1,3,4-oxadiazole-2-carboxamide] was tested. Which IC50 did it give?
Answer: 0.1 to 1000 nM

Question: How did the IC50 turn out when `CN1C(=O)[C@@H](NC(=O)c2ncc(Cc3ccccc3)o2)[C@H]2C[C@H]2c2nccnc21` [Example 194, 5-benzyl-N-((7S,7aS,8aR)-5-methyl-6-oxo-5,6,7,7a,8,8a-hexahydrocyclopropa[d]pyrazino[2,3-b]azepin-7-yl)oxazole-2-carboxamide] was run?
Answer: 0.1 to 1000 nM

Question: `C[C@H]1Oc2cccnc2N(C)C(=O)[C@H]1NC(=O)c1cnn(Cc2ccccc2)n1` [Example 204, 2-benzyl-N-((2R,3S)-2,5-dimethyl-4-oxo-2,3,4,5-tetrahydropyrido[3,2-b][1,4]oxazepin-3-yl)-2H-1,2,3-triazole-4-carboxamide] was tested. Which IC50 did it give?
Answer: 0.1 to 1000 nM
